According to US20160355483A1, “COMPOUND BINDING TO PPARG BUT NOT ACTING AS PROMOTER AND PHARMACEUTICAL COMPOSITION FOR TREATING PPARG-RELATED DISEASES CONTAINING SAME AS ACTIVE INGREDIENT” (Hyundai Pharm Co., Ltd., priority 2014, published 2016):

Molecular target: T1, PPARG (peroxisome proliferator activated receptor-gamma), GST-PPARG-LBD (Homo sapiens, UniProt P37231)
T1 construct: 15 μL of 5 nM GST-PPARG-LBD and 5 nM Tb-GST-antibody were added; purchased Invitrogen PV4894
T1 sequence (P37231 238-503 limits assumed): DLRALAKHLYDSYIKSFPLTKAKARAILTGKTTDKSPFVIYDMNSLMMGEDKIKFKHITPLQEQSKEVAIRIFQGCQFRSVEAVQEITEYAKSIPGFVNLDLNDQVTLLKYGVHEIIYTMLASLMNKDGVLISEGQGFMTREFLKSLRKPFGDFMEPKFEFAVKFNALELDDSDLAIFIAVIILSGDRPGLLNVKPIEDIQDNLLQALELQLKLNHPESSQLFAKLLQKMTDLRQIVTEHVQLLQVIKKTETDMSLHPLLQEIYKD
Assay: LanthaScreen TR-FRET PPARG Competitive Binding Assay
Design: key: “+” indicates the degree of the binding activity, and as the number of “+” increases, the binding activity is stronger; ++: “+” indicates the degree of the binding activity, and as the number of “+” increases, the binding activity is stronger; +++: “+” indicates the degree of the binding activity, and as the number of “+” increases, the binding activity is stronger; ++++: “+” indicates the degree of the binding activity, and as the number of “+” increases, the binding activity is stronger
Conditions: degree of binding activity
Protocol: The following experiment was performed to evaluate the PPARG (peroxisome proliferator activated receptor-gamma) binding capacity and transcriptional activity of the compounds prepared in the examples of the invention. For the experiment, LanthaScreen™ TR-FRET PPARG Competitive Binding Assay Kit (PV4894, Invitrogen) was used according to the manufacturer's instruction. […] The mixture was loaded in a 384-well plate (Greiner, 784075) by 20 μL per well, followed by reaction at room temperature for 1 hour. Upon completion of the reaction, fluorescence value was measured by using Flexstation 3 (Molecular Devices) with time-resolved fluorescence (RFU) mode (excitation 1: 340 nm, emission 1: 518 nm, excitation 2: 340 nm, emission 2: 488 nm, integration delay 50 μs, integration 400 μs). The results were calculated by using 518 nm RFUs/488 nm RFUs ratio. The activity of the compounds of the invention was compared with that of the vehicle, which was calculated by ratio according to the formula [100%−compound of the example ratio/vehicle ratio]. At this time, the binding activity ratio to rosiglitazone was compared.

Compound	Binding assay (1 μLM)
O=C(NCc1ccccc1Br)c1ccc2c(c1)CCCN2Cc1ccc(-c2ccccc2C(=O)O)cc1 [Example 29, 4′-((6-((2-bromobenzyl)carbamoyl)-3,4-dihydroquinoline-1(2H)-yl)methyl)-[1,1′-biphenyl]-2-carboxylic acid]	++++
O=C(NCc1ccc2c(c1)OCCO2)c1ccc2c(c1)CCCN2Cc1ccc(-c2ccccc2C(=O)O)cc1 [Example 30, 4′-((6-(((2,3-dihydrobenzo[b][1,4]dioxin-6-yl)methyl)carbamoyl)-3,4-dihydroquinoline-1(2H)-yl)methyl)-[1,1′-biphenyl]-2-carboxylic acid]	+++
O=C(NCc1ccc(Br)cc1)c1ccc2c(c1)CCCN2Cc1ccc(-c2ccccc2C(=O)O)cc1 [Example 31, 4′-((6-((4-bromobenzyl)carbamoyl)-3,4-dihydroquinoline-1 (2H)-yl)methyl)-[1,1′-biphenyl]-2-carboxylic acid]	++++
C[C@H](NC(=O)c1ccc2c(c1)CCCN2Cc1ccc(-c2ccccc2C(N)=O)cc1)c1ccc(OC(F)(F)F)cc1 [Example 34, (S)-1-((2′-carbamoyl-[1,1′-biphenyl]-4-yl)methyl)-N-(1-(4-(trifluoromethoxy)phenyl)ethyl)-1,2,3,4-tetrahydroquinoline-6-carboxamide]	++++
C[C@H](NC(=O)c1ccc2c(c1)CCCN2Cc1ccc(-c2ccccc2C(N)=O)cc1)c1cccc(Cl)c1 [Example 35, (S)-1-((2′-carbamoyl-[1,1′-biphenyl]-4-yl)methyl)-N-(1-(3-chlorophenyl)ethyl)-1,2,3,4-tetrahydroquinoline-6-carboxamide]	+++
C[C@H](NC(=O)c1ccc2c(c1)CCCN2Cc1ccc(-c2ccccc2C(N)=O)cc1)c1ccc(F)c(F)c1 [Example 39, (S)-1-((2′-carbamoyl-[1,1′-biphenyl]-4-yl)methyl)-N-(1-(3,4-difluorophenyl)ethyl)-1,2,3,4-tetrahydroquinoline-6-carboxamide]	+++
C[C@H](NC(=O)c1ccc2c(c1)CCCN2Cc1ccc(-c2ccccc2C(N)=O)cc1)c1ccccc1F [Example 42, (S)-1-((2′-carbamoyl-[1,1′-biphenyl]-4-yl)methyl)-N-(1-(2-fluorophenyl)ethyl)-1,2,3,4-tetrahydroquinoline-6-carboxamide]	+++
C[C@H](NC(=O)c1ccc2c(c1)CCCN2Cc1ccc(-c2ccccc2C(N)=O)cc1)c1cccc(F)c1 [Example 45, (S)-1-((2′-carbamoyl-[1,1′-biphenyl]-4-yl)methyl)-N-(1-(3-fluorophenyl)ethyl)-1,2,3,4-tetrahydroquinoline-6-carboxamide]	+++
C[C@H](NC(=O)c1ccc2c(c1)CCCN2Cc1ccc(-c2ccccc2C(N)=O)cc1)c1cccc(OC(F)(F)F)c1 [Example 46, (S)-1-((2′-carbamoyl-[1,1′-biphenyl]-4-yl)methyl)-N-(1-(3-(trifluoromethoxy)phenyl)ethyl)-1,2,3,4-tetrahydroquinoline-6-carboxamide]	+++
NC(=O)c1ccccc1-c1ccc(CN2CCCc3cc(C(=O)NCc4ccc5c(c4)OCCO5)ccc32)cc1 [Example 52, 1-((2′-carbamoyl-[1,1′-biphenyl]-4-yl)methyl)-N-((2,3-dihydrobenzo[b][1,4]dioxin-6-yl)methyl)-1,2,3,4-tetrahydroquinoline-6-carboxamide]	+++

More lines, now with the values ahead:

Binding assay (1 μLM)	Compound
++	O=C(NCc1ccccn1)c1ccc2c(c1)CCCN2Cc1ccc(-c2ccccc2C(=O)O)cc1 [Example 26, 4′-((6-((pyridine-2-ylmethyl)carbamoyl)-3,4-dihydroquinoline-1(2H)-yl)methyl)-[1,1′-biphenyl]-2-carboxylic acid]
+	O=C(NCc1ccncc1)c1ccc2c(c1)CCCN2Cc1ccc(-c2ccccc2C(=O)O)cc1 [Example 27, 4′-((6-((pyridine-4-ylmethyl)carbamoyl)-3,4-dihydroquinoline-1(2H)-yl)methyl)-[1,1′-biphenyl]-2-carboxylic acid]
++++	O=C(NCc1ccccc1)c1ccc2c(c1)CCCN2Cc1ccc(-c2ccccc2C(=O)O)cc1 [Example 28, 4′-((6-(benzylcarbamoyl)-3,4-dihydroquinoline-1(2H)-yl)methyl)-[1,1′-biphenyl]-2-carboxylic acid]
+++	O=C(NCc1cccc(OC(F)(F)F)c1)c1ccc2c(c1)CCCN2Cc1ccc(-c2ccccc2C(=O)O)cc1 [Example 32, 4′-((6-((3-(trifluoromethoxy)benzyl)carbamoyl)-3,4-dihydroquinoline-1(2H)-yl)methyl)-[1,1′-biphenyl]-2-carboxylic acid]
+++	C[C@H](NC(=O)c1ccc2c(c1)CCCN2Cc1ccc(-c2ccccc2C(N)=O)cc1)c1ccc(C(F)(F)F)cc1 [Example 33, (S)-1-((2′-carbamoyl-[1,1′-biphenyl]-4-yl)methyl)-N-(1-(4-(trifluoromethyl)phenyl)ethyl)-1,2,3,4-tetrahydroquinoline-6-carboxamide]
+++	C[C@H](NC(=O)c1ccc2c(c1)CCCN2Cc1ccc(-c2ccccc2C(N)=O)cc1)c1ccc(Br)cc1 [Example 37, (S)—N-(1-(4-bromophenyl)ethyl)-1-((2′-carbamoyl-[1,1′-biphenyl]-4-yl)methyl)-1,2,3,4-tetrahydroquinoline-6-carboxamide]
++	C[C@H](NC(=O)c1ccc2c(c1)CCCN2Cc1ccc(-c2ccccc2C(N)=O)cc1)c1cccc2ccccc12 [Example 38, (S)-1-((2′-carbamoyl-[1,1′-biphenyl]-4-yl)methyl)-N-(1-(naphthalene-1-yl)ethyl)-1,2,3,4-tetrahydroquinoline-6-carboxamide]
+++	COc1cccc([C@H](C)NC(=O)c2ccc3c(c2)CCCN3Cc2ccc(-c3ccccc3C(N)=O)cc2)c1 [Example 40, (S)-1-((2′-carbamoyl-[1,1′-biphenyl]-4-yl)methyl)-N-(1-(3-methoxyphenyl)ethyl)-1,2,3,4-tetrahydroquinoline-6-carboxamide]
+++	COc1ccccc1[C@H](C)NC(=O)c1ccc2c(c1)CCCN2Cc1ccc(-c2ccccc2C(N)=O)cc1 [Example 41, (S)-1-((2′-carbamoyl-[1,1′-biphenyl]-4-yl)methyl)-N-(1-(2-methoxyphenyl)ethyl)-1,2,3,4-tetrahydroquinoline-6-carboxamide]
++	C[C@H](NC(=O)c1ccc2c(c1)CCCN2Cc1ccc(-c2ccccc2C(N)=O)cc1)c1ccccc1C(F)(F)F [Example 43, (S)-1-((2′-carbamoyl-[1,1′-biphenyl]-4-yl)methyl)-N-(1-(2-(trifluoromethyl)phenyl)ethyl)-1,2,3,4-tetrahydroquinoline-6-carboxamide]
+++	C[C@H](NC(=O)c1ccc2c(c1)CCCN2Cc1ccc(-c2ccccc2C(N)=O)cc1)c1cccc(C(F)(F)F)c1 [Example 47, (S)-1-((2′-carbamoyl-[1,1′-biphenyl]-4-yl)methyl)-N-(1-(3-(trifluoromethyl)phenyl)ethyl)-1,2,3,4-tetrahydroquinoline-6-carboxamide]
+	NC(=O)c1ccccc1-c1ccc(CN2CCCc3cc(C(=O)NCc4ccncc4)ccc32)cc1 [Example 48, 1-((2′-carbamoyl-[1,1′-biphenyl]-4-yl)methyl)-N-(pyridine-4-ylmethyl)-1,2,3,4-tetrahydroquinoline-6-carboxamide]
+++	Cc1ccc([C@H](C)NC(=O)c2ccc3c(c2)CCCN3Cc2ccc(-c3ccccc3C(N)=O)cc2)cc1F [Example 49, (S)-1-((2′-carbamoyl-[1,1′-biphenyl]-4-yl)methyl)-N-(1-(3-fluoro-4-methylphenyl)ethyl)-1,2,3,4-tetrahydroquinoline-6-carboxamide]
+++	NC(=O)c1ccccc1-c1ccc(CN2CCCc3cc(C(=O)NCc4ccccc4)ccc32)cc1 [Example 50, N-benzyl-1-((2′-carbamoyl-[1,1′-biphenyl]-4-yl)methyl)-1,2,3,4-tetrahydroquinoline-6-carboxamide]
+++	NC(=O)c1ccccc1-c1ccc(CN2CCCc3cc(C(=O)NCc4ccccc4Br)ccc32)cc1 [Example 51, N-(2-bromobenzyl)-1-((2′-carbamoyl-[1,1′-biphenyl]-4-yl)methyl)-1,2,3,4-tetrahydroquinoline-6-carboxamide]
